The values that follow come from patent US20250332173A1, “COMPOUNDS AND METHODS FOR MODULATING NUCLEIC ACID SPLICING” (REMIX THERAPEUTICS INC., priority 2021, published 2025).

Bounds are passed on as bounds.

Common to all, as to format: cell-based, human
Assay [1] has as its system Target C. The assay is described as follows: HiBiT protein abundance assay, Target C (Promega Nano-Glo HiBiT Lytic Detection System, knock-in K562 cell line). The following applies: Homo sapiens, K562, 24 h, HiBiT K562 cell line, 24 hours, top dose 10 μM; read-out: Effect on protein abundance, Target C (IC50 category). A digest of the protocol: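 Knock-in K562 cells carrying HiBiT-tagged Target C, 10,000 per well, treated 24 h at 37 °C with 10-point threefold dilutions (top 10 μM final, ≤0.25% DMSO). Lytic HiBiT luminescence read; response normalised to unmodified K562 and DMSO controls, four-parameter fit interpolated at 50% for IC50.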
A general note: HiBiT is a short tag that completes a luciferase, so light tracks the accessible tagged protein.

In assay [2] the test system is Target C. The experiment in a line: RT-qPCR splicing assay panel, Target C canonical junction (CJ) mRNA. The conditions noted are these: Homo sapiens; Table 5 panel; canonical junction qPCR; compound concentration having 50% response in CJ decrease; read-out: Target C IC50 (decrease in CJ mRNA levels). The method in brief:
(§1)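 Cells are plated (A673 allowed 24 h to adhere), dosed with an 11-point 3-fold series topping at 10 uM final, and incubated 24 h at 37 °C. Lysis is followed by cDNA synthesis and qPCR of the CJ transcript, normalized to a housekeeping gene.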
(In qPCR the cycle at which signal appears reflects the starting amount.)

A further assay concerns SMN2 mRNA. The assay is described as follows: RT-qPCR splicing assay, SMN2 canonical junction (CJ) mRNA. The following applies: Homo sapiens; Table 5 panel; canonical junction qPCR; compound concentration having 50% response in CJ decrease; read-out: SMN2 IC50 (decrease in CJ mRNA levels). The method in brief:
as §1

The IC50 is the concentration at which inhibition is half-maximal. Regarding `Cc1c(O)c(-c2cc(F)c3c(=O)n(C4CCNC5(CC5)C4)ccc3c2)cc2cn(C)nc12` (stereo not drawn) [Compound 419, 2-{4-azaspiro[2.5]octan-7-yl}-8-fluoro-6-(6-hydroxy-2,7-dimethylindazol-5-yl)isoquinolin-1-one], the IC50 in the assay on Target C [1] is above 10000 nM; in the assay with Target C [2], above 10000 nM; with SMN2 mRNA, 100 to 1000 nM.

On to `Cn1cc2cc(-c3cc(F)c4c(=O)n(C5CCNC6(CC6)C5)ccc4c3)c(O)c(F)c2n1` (stereo not drawn) [Compound 420, 2-{4-azaspiro[2.5]octan-7-yl}-8-fluoro-6-(7-fluoro-6-hydroxy-2-methylindazol-5-yl)isoquinolin-1-one], for which the IC50 with Target C [1] was 1000 to 10000 nM; in the assay with Target C [2] it was 1000 to 10000 nM; in the assay on SMN2 mRNA it was below 100 nM.

With `Cc1cn2cc(-c3cc(F)c4c(=O)n(C5CCNC6(CC6)C5)ccc4c3)c(O)c(C)c2n1` (stereo not drawn) [Compound 421, 2-{4-azaspiro[2.5]octan-7-yl}-8-fluoro-6-{7-hydroxy-2,8-dimethylimidazo[1,2-a]pyridin-6-yl}isoquinolin-1-one], the IC50 with Target C [1], in the assay with Target C [2] and in the assay on SMN2 mRNA was above 10000 nM in each case.

With `Cc1cn2nc(-c3cc(C)c4c(=O)n(C5CCNC6(CC6)C5)ncc4c3)cc(C)c2n1` (stereo not drawn) [Compound 423, 6-(2,8-dimethylimidazo[1,2-b]pyridazin-6-yl)-8-methyl-2-(4-azaspiro[2.5]octan-7-yl)phthalazin-1(2H)-one], the IC50 in the assay on Target C [1] was below 100 nM; in the assay on Target C [2] it was 100 to 1000 nM; with SMN2 mRNA, below 100 nM.

Consider `Cc1cn2cc(-c3cc(F)c4c(=O)n(C5CCNC6(CC6)C5)ccc4c3)ncc2n1` (stereo not drawn) [Compound 428, 8-fluoro-6-(2-methylimidazo[1,2-a]pyrazin-6-yl)-2-(4-azaspiro[2.5]octan-7-yl)isoquinolin-1(2H)-one], for which the values for the IC50 in the assay with Target C [1], in the assay with Target C [2] and in the assay with SMN2 mRNA were 1000 to 10000 nM, 1000 to 10000 nM and below 100 nM, respectively.

In the case of `Cc1cc(-c2cc(F)c3c(=O)n(C4CCNC5(CC5)C4)ccc3c2)cc2c1nc(C)n2C` (stereo not drawn) [Compound 429], the IC50 in the assay with Target C [1] is 100 to 1000 nM; in the assay with Target C [2], above 10000 nM; in the assay on SMN2 mRNA, above 10000 nM.

`Cc1nc2c(F)cc(-c3cc(F)c4c(=O)n(C5CCNC6(CC6)C5)ccc4c3)cc2n1C` (stereo not drawn) [Compound 430, 8-fluoro-6-(4-fluoro-1,2-dimethyl-1H-benzo[d]imidazol-6-yl)-2-(4-azaspiro[2.5]octan-7-yl)isoquinolin-1(2H)-one]: the values for the IC50 in the assay on Target C [1], with Target C [2] and in the assay with SMN2 mRNA were above 10000 nM, above 10000 nM and 100 to 1000 nM, respectively.

On to `Cc1cc(-c2cc(F)c3c(=O)n(C4CCNC5(CC5)C4)ccc3c2)nc2cn(C)nc12` (stereo not drawn) [Compound 431], for which the IC50 in the assay with Target C [1] is below 100 nM; in the assay on Target C [2], 100 to 1000 nM; in the assay on SMN2 mRNA, below 100 nM.

Turning to `Cc1cn2nc(-c3cc(O)c4c(=O)n(C5CCNC5)ccc4c3)cc(C)c2n1` (stereo not drawn) [Compound 432, 6-{2,8-dimethylimidazo[1,2-b]pyridazin-6-yl}-8-hydroxy-2-(pyrrolidin-3-yl)isoquinolin-1-one], the results for the IC50 in the assay with Target C [1], in the assay with Target C [2] and with SMN2 mRNA were 1000 to 10000 nM, 1000 to 10000 nM and below 100 nM, respectively.

`Cc1cn2cc(-c3cc(O)c4c(=O)n(C5CCNC5)ccc4c3)cc(C#N)c2n1` (stereo not drawn) [Compound 433, 6-(8-hydroxy-1-oxo-2-(pyrrolidin-3-yl)-1,2-dihydroisoquinolin-6-yl)-2-methylimidazo[1,2-a]pyridine-8-carbonitrile]: the figures for the IC50 with Target C [1], in the assay with Target C [2] and with SMN2 mRNA were above 10000 nM, 100 to 1000 nM and below 100 nM, respectively.

Turning to `Cc1cn2cc(-c3cc(F)c4c(=O)n(C5CCNC5)ccc4c3)cc(C#N)c2n1` (stereo not drawn) [Compound 434, 6-[8-fluoro-1-oxo-2-(pyrrolidin-3-yl)isoquinolin-6-yl]-2-methylimidazo[1,2-a]pyridine-8-carbonitrile], the IC50 in the assay on Target C [1] is above 10000 nM; in the assay with Target C [2] it was above 10000 nM; in the assay with SMN2 mRNA it was below 100 nM.

For the compound `Cc1cn2cc(-c3ccc4c(=O)n(C5CCNCC5)cc(C)c4c3)cc(F)c2n1` [Compound 440, 6-{8-fluoro-2-methylimidazo[1,2-a]pyridin-6-yl}-4-methyl-2-(piperidin-4-yl)isoquinolin-1-one], the IC50 was 100 to 1000 nM in the assay on Target C [1], 100 to 1000 nM in the assay on Target C [2] and below 100 nM in the assay on SMN2 mRNA.

`Cc1cn2cc(-c3ccc4c(=O)n(C5CCNC5)cc(C)c4c3)cc(F)c2n1` (stereo not drawn) [Compound 441, 6-{8-fluoro-2-methylimidazo[1,2-a]pyridin-6-yl}-4-methyl-2-(pyrrolidin-3-yl)isoquinolin-1-one]: the IC50 in the assay on Target C [1] was above 10000 nM; in the assay with Target C [2], above 10000 nM; in the assay on SMN2 mRNA, 100 to 1000 nM.

In the case of `Cc1cn2cc(-c3ccc4c(=O)n(C5CCNC5)cc(C)c4c3)cc(C#N)c2n1` (stereo not drawn) [Compound 442, 2-methyl-6-[4-methyl-1-oxo-2-(pyrrolidin-3-yl)isoquinolin-6-yl]imidazo[1,2-a]pyridine-8-carbonitrile], the values for the half-inhibitory concentration (IC50) in the assay with Target C [1], with Target C [2] and in the assay on SMN2 mRNA were above 10000 nM, above 10000 nM and 1000 to 10000 nM, respectively.

Regarding `Cc1cn2nc(-c3ccc4c(=O)n([C@H]5CCNC6(CC6)C5)ccc4c3)cc(C)c2n1` [Compound 445], the IC50 with Target C [1], with Target C [2] and in the assay with SMN2 mRNA was below 100 nM throughout.

For the compound `Cc1cn2nc(-c3cc(F)c4c(=O)n([C@@H]5CCNC6(CC6)C5)ncc4c3)cc(C)c2n1` [Compound 446], the IC50 in the assay with Target C [1], with Target C [2] and in the assay on SMN2 mRNA was below 100 nM each time.

As to `Cc1cn2nc(-c3cc(F)c4c(=O)n([C@H]5CCNC6(CC6)C5)ncc4c3)cc(C)c2n1` [Compound 447], the IC50 in the assay with Target C [1], in the assay with Target C [2] and in the assay with SMN2 mRNA was below 100 nM throughout.

Regarding `Cc1cn2nc(-c3cc4ccn(C5CCNCC5)c(=O)c4cc3O)cc(C)c2n1` [Compound 448, 6-{2,8-dimethylimidazo[1,2-b]pyridazin-6-yl}-7-hydroxy-2-(piperidin-4-yl)isoquinolin-1-one], the IC50 with Target C [1], in the assay with Target C [2] and in the assay on SMN2 mRNA was below 100 nM in each case.

Turning to `COc1cc2c(=O)n(C3CCNCC3)ccc2cc1-c1cc(C)c2nc(C)cn2n1` [Compound 449, 6-{2,8-dimethylimidazo[1,2-b]pyridazin-6-yl}-7-methoxy-2-(piperidin-4-yl)isoquinolin-1-one], the half-maximal inhibitory concentration (IC50) in the assay with Target C [1], in the assay with Target C [2] and with SMN2 mRNA was above 10000 nM each time.

Consider `Cc1cn2cc(-c3ccc4c(=O)n([C@@H]5CCNC5)cc(C)c4c3)cc(F)c2n1` [Compound 452, (R)-6-(8-fluoro-2-methylimidazo[1,2-a]pyridin-6-yl)-4-methyl-2-(pyrrolidin-3-yl)isoquinolin-1(2H)-one], for which the values for the IC50 in the assay with Target C [1], with Target C [2] and in the assay on SMN2 mRNA were above 10000 nM, above 10000 nM and below 100 nM, respectively.

For the compound `Cc1cn2c(n1)CCC(c1ccc3c(=O)n(C4CCNCC4)ccc3c1)C2` (stereo not drawn) [Compound 453, 6-{2-methyl-5H,6H,7H,8H-imidazo[1,2-a]pyridin-6-yl}-2-(piperidin-4-yl)isoquinolin-1-one], the IC50 in the assay on Target C [1], in the assay with Target C [2] and with SMN2 mRNA was above 10000 nM each time.

`Cc1cn2cc(-n3ccc4cc(N5C[C@@H](C)N[C@@H](C)C5)ccc4c3=O)nc(C)c2n1` [Compound 454, 2-{2,8-dimethylimidazo[1,2-a]pyrazin-6-yl}-6-[(3R,5S)-3,5-dimethylpiperazin-1-yl]isoquinolin-1-one]: the IC50 was above 10000 nM with Target C [1], above 10000 nM with Target C [2] and 1000 to 10000 nM in the assay on SMN2 mRNA.
